Reference: patent US20250213596A1, “CANNABINOID-CONTAINING COMPOSITIONS” (BUZZELET DEVELOPMENT AND TECHNOLOGIES LTD., priority 2022, published 2025)

Assay: Flowability / transfer of the product from vessel to vessel
Format: physicochemical
Settings: as obtained, ambient temperature
Source text: As used herein, the term “flowable” with regard to a composition is intended to mean that a majority of particles of the composition have the ability to move freely relative to an inner surface of a vessel in which they are contained.
Purified THC at 99% purity (dronabinol) was used.
A product comprising 66% silica and 33% THC was formed. It felt dry and was free flowing. It transferred fully from one vessel to another.

CCCCCc1cc(O)c2c(c1)OC(C)(C)[C@@H]1CCC(C)=C[C@@H]21 [dronabinol]
flowability of the material (pourable / free flowing): could not be poured out of its container
